Measurements as given in patent US20030211636A1, “Point of care test for measurement of therapeutic drug levels” (Pfizer Inc., priority 2002, published 2003).
Read-outs that look alike come from different tables or passages of the source.

How the values were obtained:
[1] = Compound 122 saliva concentrations in healthy human subjects after oral administration (HPLC-MS/MS); assay type: in vivo; conditions: for concentration at 2 h / concentration at 4 h / concentration at 8 h / concentration at 24 h / concentration at 0 h: human, saliva, po
Method: (§1) Stock solutions of Compound 122-HCl salt and internal standard 2-difluoromethoxy-5-trifluoromethoxy-benzyl)-(2-phenyl-piperidin-3-yl)-amine] HCl salt (hereinafter referred to as IS, for internal standard) were prepared at concentrations of 100 μg/ml in 1:1 Methanol/Water and stored at −20° C. […] Serial dilutions of the stock solutions were prepared in 1:1 Methanol/Water as needed. Standard curve samples were freshly prepared using serial dilutions of stock so that equivalent additions produced 0.1, 0.2, 0.5, 2, 10, and 50 ng/ml solutions in Control Human Saliva (CHS). Quality control samples were prepared from a different stock solution similarly at 0.15, 5, and 40 ng/ml in CHS.
Aliquots (50 μl) of Human saliva, 200 μl of 0.1% Ammonium Hydroxide and 50 μl of 2.0 ng/ml IS were added, in sequence, to one well of a 96 well block. The plate was centrifuged briefly to consolidate the above contents and placed onto a TomTec Quadra 96. An automatic program was used that performs the following steps: conditions a Waters brand 10 mg Oasis HLB plate with 100 μl Methanol and then 200 μl 50/50 Methanol/Water (containing 2% v/v Ammonium Hydroxide), transfers the 300 μl of sample to the plate, washes the plate with 400 μl of 50/50 Methanol/Water (containing 2% v/v Ammonium Hydroxide) and then elutes the drug and IS into a clean 96 deep well block with 200 μl of 70/30 Methanol/Water (containing 2% v/v Acetic Acid). The eluent was isolated, evaporated to dryness under a stream of Nitrogen, and reconstituted in 100 μl 60/40 Methanol/10 mM Ammonium Acetate (both containing 0.05% Formic Acid) and vortexed for approximately 30 seconds. The plate was then centrifuged for ˜1 minute at about 3000 RPM. Injection volumes introduced into HPLC system were typically […].
The mobile phase was a binary mixture (60/40) of Methanol and 10 mM Ammonium Acetate (both containing 0.05% Formic Acid). The analytical column was a Phenomenex LUNA Phenyl Hexyl, 5μ, 2.00×50 mm LC/MS column preceded by a 2.0 micron stainless steel precolumn filter. A Hewlett Packard 1100 series quaternary pump was used and a mobile phase flow rate of 0.30 ml/min was maintained. A CTC Analytics (LEAP) HTS PAL autosampler injected the 10 μl sample aliquots onto the column at approximately 3 minute intervals.
The analysis was performed on a Perkin Elmer SCIEX API 3000 triple quadrupole mass spectrometer operated in the positive ion mode. The effluent from the HPLC column was directly introduced into the TurbolonSpray ion source, which was operated at 1500V with a temperature of 375° C. and 6 L/sec nitrogen gas. Nitrogen nebulizer gas was set to 10 and curtain gas was set to 9. Analyte and IS responses were measured using multiple reaction monitoring (MRM). Protonated molecular ions for drug (m/z 381.4), and I.S. (m/z 417.1) were dissociated by collision with nitrogen. Collision gas (CAD) was set to 5 and a collision energy of 32 eV was used. Product ions at m/z 160.0 were monitored for both drug and IS runs.
Subjects were divided into three groups of six individuals: CYP2D6 extensive metabolizers (including one “intermediate” metabolizer), CYP2D6 extensive metabolizers receiving concurrent paroxetine as an inhibitor of CYP2D6 (also including one intermediate metabolizer), and CYP2D6 poor metabolizers. […] Saliva samples were collected on the first day of each study leg.
Samples were subjected to a solid phase extraction procedure followed by chromatography and analysis on a Sciex API3000 tandem quadrupole mass spectrometer.
Mean values were calculated in those cases in which half or greater of the individual values were >LLOQ. A value of zero was used in those cases wherein concentrations were <LLOQ. […] Cav is defined by AUC (0-24 hr)/24.

[2] = Stability of Compound 122 stock solution; assay type: physicochemical; conditions: HCl salt, 100 μg/ml in 1:1 Methanol/Water, stored at −20° C.
Method: as §1

[3] = 10 mg, EM + paroxetine, Day 1, 10 mg q.d. oral, read-out: Mean saliva concentration, EM + paroxetine, Mean ± SD
[4] = 10 mg, EM + paroxetine, Day 6, 10 mg b.i.d. oral, read-out: Mean saliva concentration, EM + paroxetine, Mean ± SD
[5] = 10 mg, EM, Day 1, 10 mg q.d. oral, read-out: Mean saliva concentration, EM, Mean ± SD
[6] = 10 mg, EM, Day 6, 10 mg b.i.d. oral, read-out: Mean saliva concentration, EM, Mean ± SD
[7] = 10 mg, PM, Day 1, 10 mg q.d. oral, read-out: Mean saliva concentration, PM, Mean ± SD
[8] = 10 mg, PM, Day 6, 10 mg b.i.d. oral, read-out: Mean saliva concentration, PM, Mean ± SD
[9] = 30 mg, EM + paroxetine, Day 11, 30 mg q.d. oral, read-out: Mean saliva concentration, EM + paroxetine, Mean ± SD
[10] = 30 mg, EM + paroxetine, Day 16, 30 mg b.i.d. oral, read-out: Mean saliva concentration, EM + paroxetine, Mean ± SD
[11] = 30 mg, EM, Day 11, 30 mg q.d. oral, read-out: Mean saliva concentration, EM, Mean ± SD
[12] = 30 mg, EM, Day 16, 30 mg b.i.d. oral, read-out: Mean saliva concentration, EM, Mean ± SD
[13] = 30 mg, PM, Day 11, 30 mg q.d. oral, read-out: Mean saliva concentration, PM, Mean ± SD
[14] = 30 mg, PM, Day 16, 30 mg b.i.d. oral, read-out: Mean saliva concentration, PM, Mean ± SD
[15] = 100 mg, EM + paroxetine, Day 21, 100 mg q.d. oral, read-out: Mean saliva concentration, EM + paroxetine, Mean ± SD
[16] = 100 mg, EM, Day 21, 100 mg q.d. oral, read-out: Mean saliva concentration, EM, Mean ± SD
[17] = 100 mg, PM, Day 21, 100 mg q.d. oral, read-out: Mean saliva concentration, PM, Mean ± SD

- mean salivary Cav ([1]; 30 mg b.i.d., Cav = AUC (0-24 hr)/24): 4.04 ng/mL
- serum Cav corresponding to salivary Cav ([1]; 30 mg b.i.d., salivary Cav divided by fu): 58 ng/mL
- concentration at 2 h [1, 3]: 0.5 ± 0.462 ng/mL
- concentration at 4 h [1, 3]: 0.632 ± 0.773 ng/mL
- concentration at 8 h [1, 3]: 0.533 ± 0.722 ng/mL
- concentration at 24 h [1, 3]: 0.192 ± 0.332 ng/mL
- concentration at 0 h [1, 4]: 3.21 ± 5.09 ng/mL
- concentration at 2 h [1, 4]: 1.92 ± 1.83 ng/mL
- concentration at 4 h [1, 4]: 2.97 ± 2.16 ng/mL
- concentration at 8 h [1, 4]: 5.68 ± 9.27 ng/mL
- concentration at 24 h [1, 4]: 2.16 ± 1.27 ng/mL
- concentration at 2 h [1, 5]: 0.545 ± 0.518 ng/mL
- concentration at 4 h [1, 5]: 0.524 ± 0.293 ng/mL
- concentration at 8 h [1, 5]: 0.313 ± 0.164 ng/mL
- concentration at 0 h [1, 6]: 0.27 ± 0.454 ng/mL
- concentration at 2 h [1, 6]: 0.541 ± 0.465 ng/mL
- concentration at 4 h [1, 6]: 0.987 ± 0.915 ng/mL
- concentration at 8 h [1, 6]: 0.805 ± 1.18 ng/mL
- concentration at 24 h [1, 6]: 0.418 ± 0.426 ng/mL
- concentration at 2 h [1, 7]: 0.517 ± 0.261 ng/mL
- concentration at 4 h [1, 7]: 2.23 ± 1.06 ng/mL
- concentration at 8 h [1, 7]: 2.31 ± 1.32 ng/mL
- concentration at 24 h [1, 7]: 1.05 ± 0.558 ng/mL
- concentration at 0 h [1, 8]: 2.93 ± 2.45 ng/mL
- concentration at 2 h [1, 8]: 2.85 ± 2.18 ng/mL
- concentration at 4 h [1, 8]: 4.69 ± 3.28 ng/mL
- concentration at 8 h [1, 8]: 3.23 ± 2.8 ng/mL
- concentration at 24 h [1, 8]: 5.51 ± 4.39 ng/mL
- concentration at 0 h [1, 9]: 3.86 ± 1.57 ng/mL
- concentration at 2 h [1, 9]: 5.98 ± 2.9 ng/mL
- concentration at 4 h [1, 9]: 9.51 ± 3.07 ng/mL
- concentration at 8 h [1, 9]: 6.3 ± 1.69 ng/mL
- concentration at 24 h [1, 9]: 5.59 ± 2.28 ng/mL
- concentration at 0 h [1, 10]: 6.16 ± 4.58 ng/mL
- concentration at 2 h [1, 10]: 9.11 ± 5.4 ng/mL
- concentration at 4 h [1, 10]: 10 ± 6 ng/mL
- concentration at 8 h [1, 10]: 9.69 ± 4.74 ng/mL
- concentration at 24 h [1, 10]: 9.67 ± 5.91 ng/mL
- concentration at 0 h [1, 11]: 1.16 ± 1.81 ng/mL
- concentration at 2 h [1, 11]: 3.07 ± 2.77 ng/mL
- concentration at 4 h [1, 11]: 4.03 ± 4.1 ng/mL
- concentration at 8 h [1, 11]: 3.18 ± 2.99 ng/mL
- concentration at 24 h [1, 11]: 1.92 ± 3.13 ng/mL
- concentration at 0 h [1, 12]: 2.44 ± 4.17 ng/mL
- concentration at 2 h [1, 12]: 2.91 ± 2.49 ng/mL
- concentration at 4 h [1, 12]: 4.57 ± 3.03 ng/mL
- concentration at 8 h [1, 12]: 3.44 ± 3.67 ng/mL
- concentration at 24 h [1, 12]: 5.08 ± 7.08 ng/mL
- concentration at 0 h [1, 13]: 8.31 ± 6.8 ng/mL
- concentration at 2 h [1, 13]: 6.96 ± 3.73 ng/mL
- concentration at 4 h [1, 13]: 11.1 ± 8.5 ng/mL
- concentration at 8 h [1, 13]: 14 ± 9.7 ng/mL
- concentration at 24 h [1, 13]: 11.8 ± 9.3 ng/mL
- concentration at 0 h [1, 14]: 15 ± 10.9 ng/mL
- concentration at 2 h [1, 14]: 11.4 ± 6.5 ng/mL
- concentration at 4 h [1, 14]: 12.9 ± 7.5 ng/mL
- concentration at 8 h [1, 14]: 13.3 ± 9.9 ng/mL
- concentration at 24 h [1, 14]: 21.5 ± 18.4 ng/mL
- concentration at 24 h ([1]; 100 mg q.d., EM + paroxetine, Day 21, 100 mg q.d. oral, read-out: Mean saliva concentration, EM + paroxetine, Mean ± SD): 15.7 ± 8.8 ng/mL
- concentration at 24 h ([1]; 100 mg q.d., EM, Day 21, 100 mg q.d. oral, read-out: Mean saliva concentration, EM, Mean ± SD): 12.5 ± 15.4 ng/mL
- concentration at 24 h ([1]; 100 mg q.d., PM, Day 21, 100 mg q.d. oral, read-out: Mean saliva concentration, PM, Mean ± SD): 46.4 ± 27.1 ng/mL
- concentration at 0 h [1, 15]: 12.2 ± 2.7 ng/mL
- concentration at 2 h [1, 15]: 35.5 ± 24.7 ng/mL
- concentration at 4 h [1, 15]: 44.1 ± 32.3 ng/mL
- concentration at 8 h [1, 15]: 27.2 ± 10 ng/mL
- concentration at 0 h [1, 16]: 6.94 ± 6.81 ng/mL
- concentration at 2 h [1, 16]: 19.1 ± 16.6 ng/mL
- concentration at 4 h [1, 16]: 21.2 ± 13.6 ng/mL
- concentration at 8 h [1, 16]: 14.6 ± 8.6 ng/mL
- concentration at 0 h [1, 17]: 32.9 ± 17.1 ng/mL
- concentration at 2 h [1, 17]: 23.1 ± 12.1 ng/mL
- concentration at 4 h [1, 17]: 46.2 ± 29.1 ng/mL
- concentration at 8 h [1, 17]: 41.3 ± 26.2 ng/mL
- stock solution stable over period [2]: ≥ 93 days
SMILES: COc1ccc(OC(F)(F)F)cc1CNC1CCCNC1c1ccccc1 (centres unmarked) [Compound 122, (2-methoxy-5-trifluoromethoxy-benzyl)-(2-phenyl-piperidin-3-yl)-amine]
